# Target: P. falciparum apicoplast DNA polymerase (Pf-apPOL) (Plasmodium falciparum, UniProt Q8ILY1)
# Test: Fluorescence-based high-throughput DNA polymerase assay (molecular beacon), primary screen and dose-response
# Assay type: biochemical
# Conditions: for DNA Pol: unit not given
# Description: The HT assay employs a molecular beacon, a stem-loop DNA template with a Cy3 dye and the Black Hole Quencher on the 3′ and 5′ ends of the DNA, respectively. Pf-apPOL concentration is based on a calculated absorptivity of ε280 = 56750 M^−1 cm^−1. Reactions were carried out at 25 °C, using Corning 3575 […] (well-volume, 20 µL). Assays testing for compound inhibition composed of reaction buffer (pH 7.9 in 50 mM potassium acetate, 20 mM Tris-acetate and 10 mM magnesium acetate), Pf-apPOL (20 nM), DNA substrate (20 nM), dNTPs (6 µM), and compound (10 µM in DMSO). The DNA and nucleotide substrates (dNTPs) were at concentrations of 20 nM and 6 µM, respectively, in the assay. Pf-apPOL was incubated in the reaction buffer with dNTPs and the compound of interest (10 µM, in the assay) at 25 °C for 10 min. The DNA substrate was then added and the reaction was allowed to proceed for 90 min at 25 °C.
# Each assay plate contained 16 negative controls (no Pf-apPOL, DMSO present) and 16 positive controls (Pf-apPOL present, no DMSO). The fluorescence of each well was determined using a BioTek Synergy Neo fluorescence plate reader using excitation and emission wavelengths of 555 and 570 nm, respectively.
# In the above, Min is the average of fluorescence emission of the negative controls (substrate only), Max the average fluorescence emission from the positive controls (enzyme + substrate), and Test the emission from the assays in the presence of compounds (enzyme + compound + substrates). […] […] The IC50 of each compound was determined using Equation (2): (2) IC50= Vmax/(1+ (I/IC50)^n)
# In the above, n measures cooperativity, with n > 1 indicating synergistic binding of more than a single molecule of the compound.
# To identify apPOL inhibitors we utilised our previously developed high-throughput DNA polymerase assay. The HT assay is based on a molecular beacon DNA template that forms a stem-loop with a Cy3 dye and the Black Hole Quencher on the 3′ and 5′ ends of the DNA, respectively. DNA polymerase activity extends an annealed primer through the stem region, displacing the fluorophore from the quencher, thereby increasing its fluorescence (Figure 1(A)). The assay accurately recapitulates the kinetic behaviour of apPOL, as measured through more conventional low-throughput gel-based assays. The Z′ factor for the assay described here was 0.9 across all plates (data not shown).
# Figure 1. High-throughput screening. (A) The fluorescent-based DNA polymerase assay used to screen the compound libraries. The DNA template strand is a hairpin loop with a primer annealed to the loop. The 3’ end of the primer is 11 bases away from the 6 bp duplex. Strand displacement activity of the DNA polymerase separates the Cy3 dye from the Black hole quencher leading to an increase in fluorescent signal. (B) The high-throughput assay workflow. The DNA polymerase is incubated with […] compound for 10 min prior to addition of the hairpin substrate. The reaction is quenched at 3 different time points and the fluorescent signal is measured and % inhibition is determined using the provided equation.
# P. falciparum apicoplast DNA polymerase (Pf-apPOL), sequence (Q8ILY1 entry or part of it): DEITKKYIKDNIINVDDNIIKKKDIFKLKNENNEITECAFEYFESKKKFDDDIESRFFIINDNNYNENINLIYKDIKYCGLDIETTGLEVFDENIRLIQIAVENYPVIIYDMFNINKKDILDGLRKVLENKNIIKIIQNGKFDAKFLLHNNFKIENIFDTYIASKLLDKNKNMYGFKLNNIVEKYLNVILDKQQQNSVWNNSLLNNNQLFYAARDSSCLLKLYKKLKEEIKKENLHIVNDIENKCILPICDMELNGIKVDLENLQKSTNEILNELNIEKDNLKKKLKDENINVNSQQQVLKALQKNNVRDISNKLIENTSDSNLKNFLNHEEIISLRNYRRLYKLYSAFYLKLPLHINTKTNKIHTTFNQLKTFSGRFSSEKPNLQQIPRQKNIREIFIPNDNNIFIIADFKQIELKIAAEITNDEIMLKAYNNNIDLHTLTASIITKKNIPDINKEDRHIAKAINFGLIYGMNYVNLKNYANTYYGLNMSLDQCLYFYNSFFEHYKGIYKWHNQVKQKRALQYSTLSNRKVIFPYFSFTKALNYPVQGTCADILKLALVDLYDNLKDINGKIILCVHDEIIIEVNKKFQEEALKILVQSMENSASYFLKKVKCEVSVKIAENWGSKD
smiles,measurement,setting,value
COc1cc(NC(=O)c2ccccc2)c(OC)cc1NC(=O)Cc1cccs1 [KU0032113],% inhibition Apo pol 10',"DRC-1, concentration 2.5",6.129%
same,% inhibition Apo pol 10',"DRC-1, concentration 5",17.2801%
same,% inhibition Apo pol 10',"DRC-1, concentration 10",38.185%
same,% inhibition Apo pol 10',"DRC-1, concentration 20",61.3818%
same,% inhibition Apo pol 10',"DRC-1, concentration 40",79.6269%
same,% inhibition Apo pol 10',"DRC-1, concentration 80",80.874%
same,% inhibition Apol 90',"DRC-1, 90', concentration 2.5",2.9%
same,% inhibition Apol 90',"DRC-1, 90', concentration 5",9.442%
same,% inhibition Apol 90',"DRC-1, 90', concentration 10",29.583%
same,% inhibition Apol 90',"DRC-1, 90', concentration 20",53.4832%
same,% inhibition Apol 90',"DRC-1, 90', concentration 40",79.1036%
same,% inhibition Apol 90',"DRC-1, 90', concentration 80",83.2869%
same,% inhibition apPOL 180',"DRC-1, 180', concentration 2.5",0.5437%
same,% inhibition apPOL 180',"DRC-1, 180', concentration 5",4.503%
same,% inhibition apPOL 180',"DRC-1, 180', concentration 10",19.4766%
same,% inhibition apPOL 180',"DRC-1, 180', concentration 20",39.9313%
same,% inhibition apPOL 180',"DRC-1, 180', concentration 40",73.4883%
same,% inhibition apPOL 180',"DRC-1, 180', concentration 80",81.431%
same,% inhibition Apo pol 5',"DRC-2, 5', concentration 2.5 (unit not given)",25%
same,% inhibition Apo pol 5',"DRC-2, 5', concentration 10 (unit not given)",38%
same,% inhibition Apo pol 5',"DRC-2, 5', concentration 20 (unit not given)",38%
same,% inhibition Apo pol 5',"DRC-2, 5', concentration 40 (unit not given)",34%
same,% inhibition Apol 40',"DRC-2, 40', concentration 2.5 (unit not given)",34%
same,% inhibition Apol 40',"DRC-2, 40', concentration 10 (unit not given)",54%
same,% inhibition Apol 40',"DRC-2, 40', concentration 40 (unit not given)",61%
same,% inhibition ApPOL 90',"DRC-2, 90', concentration 5 (unit not given)",25%
same,% inhibition ApPOL 90',"DRC-2, 90', concentration 10 (unit not given)",54%
same,% inhibition apPOL 180',"DRC-2, 180', concentration 20 (unit not given)",61%
same,% inhibition Apo pol 5',"DRC-2, 5', concentration 2.5",25%
same,% inhibition Apo pol 5',"DRC-2, 5', concentration 5",21%
same,% inhibition Apo pol 5',"DRC-2, 5', concentration 10",38%
same,% inhibition Apo pol 5',"DRC-2, 5', concentration 20",38%
same,% inhibition Apo pol 5',"DRC-2, 5', concentration 40",34%
same,% inhibition Apo pol 5',"DRC-2, 5', concentration 80",-20%
same,% inhibition Apol 40',"DRC-2, 40', concentration 2.5",34%
same,% inhibition Apol 40',"DRC-2, 40', concentration 5",28%
same,% inhibition Apol 40',"DRC-2, 40', concentration 10",54%
same,% inhibition Apol 40',"DRC-2, 40', concentration 20",62%
same,% inhibition Apol 40',"DRC-2, 40', concentration 40",61%
same,% inhibition Apol 40',"DRC-2, 40', concentration 80",35%
same,% inhibition ApPOL 90',"DRC-2, 90', concentration 2.5",31%
same,% inhibition ApPOL 90',"DRC-2, 90', concentration 5",25%
same,% inhibition ApPOL 90',"DRC-2, 90', concentration 10",54%
same,% inhibition ApPOL 90',"DRC-2, 90', concentration 20",64%
same,% inhibition ApPOL 90',"DRC-2, 90', concentration 40",66%
same,% inhibition ApPOL 90',"DRC-2, 90', concentration 80",47%
same,% inhibition apPOL 180',"DRC-2, 180', concentration 2.5",22%
same,% inhibition apPOL 180',"DRC-2, 180', concentration 5",13%
same,% inhibition apPOL 180',"DRC-2, 180', concentration 10",44%
same,% inhibition apPOL 180',"DRC-2, 180', concentration 20",61%
same,% inhibition apPOL 180',"DRC-2, 180', concentration 40",67%
same,% inhibition apPOL 180',"DRC-2, 180', concentration 80",59%
same,DNA Pol,primary screen value of the 186 hits,42
same,DNA Pol,"primary screen value, head ""DNA Pol""",42

# From paper PMC9090415, “Discovery of small molecule inhibitors of Plasmodium falciparum apicoplast DNA polymerase” (Journal of Enzyme Inhibition and Medicinal Chemistry, 2022)
